Data from ChEMBL document CHEMBL5370591, “A Potent and Narrow-Spectrum Antibacterial against Clostridioides difficile Infection” (J Med Chem, 2023).
In brackets after ≈: the same amount, converted by molar mass. Activity calls are given as the source filed them. The calls are words filed in the database; no cut-off is given here.

Assays:
Bifidobacterium longum = assay: Antibacterial activity against Bifidobacterium longum HM-846 assessed as inhibition of bacterial growth by broth microdilution method; assay type: functional
Clostridioides difficile [1] = assay: Antibacterial activity against Clostridium difficile NR49292 assessed as inhibition of bacterial growth by broth microdilution method; assay type: functional
Clostridioides difficile [2] = assay: Antibacterial activity against Clostridium difficile BAA-1803 assessed as inhibition of bacterial growth by broth microdilution method; assay type: functional
Staphylococcus aureus = assay: Antibacterial activity against vancomycin-resistant Staphylococcus aureus clinical isolate 1 assessed as inhibition of bacterial growth by broth microdilution method; assay type: functional
Clostridioides difficile [3] = assay: Antibacterial activity against Clostridium difficile ATCC 43255 assessed as damage in cell wall at 8 time MIC incubated for 24 hrs by scanning electron microscopy based analysis; assay type: functional, organism-based
Bacteroides fragilis = assay: Antibacterial activity against Bacteroides fragilis HM-709 assessed as inhibition of bacterial growth by broth microdilution method; assay type: functional
Fusobacterium nucleatum = assay: Antibacterial activity against Fusobacterium nucleatum HM-992 assessed as inhibition of bacterial growth by broth microdilution method; assay type: functional
Clostridioides difficile [4] = assay: Antibacterial activity against Clostridium difficile NR49294 assessed as inhibition of bacterial growth by broth microdilution method; assay type: functional
Clostridioides difficile [5] = assay: Antibacterial activity against Clostridium difficile ATCC 43255 assessed as as time duration of post-antibiotic effect for suppression of bacterial growth at 4 times MIC incubated for 1 hr in broth solution; assay type: functional
Clostridioides difficile [6] = assay: Antibacterial activity against Clostridium difficile NR49318 assessed as inhibition of bacterial growth by broth microdilution method; assay type: functional
[7] = test system: Limosilactobacillus reuteri; assay: Antibacterial activity against Lactobacillus reuteri HM-102 assessed as inhibition of bacterial growth by broth microdilution method; assay type: functional
Klebsiella pneumoniae = assay: Antibacterial activity against Klebsiella pneumoniae ATCC700603 assessed as inhibition of bacterial growth by broth microdilution method; assay type: functional
Klebsiella aerogenes = assay: Antibacterial activity against Klebsiella aerogenes ATCC35029 assessed as inhibition of bacterial growth by broth microdilution method; assay type: functional
Clostridioides difficile [8] = assay: Antibacterial activity against Clostridium difficile 26675 assessed as inhibition of bacterial growth by broth microdilution method; assay type: functional
Enterococcus faecium [9] = assay: Antibacterial activity against vancomycin resistant Enterococcus faecium 106 assessed as inhibition of bacterial growth by broth microdilution method; assay type: functional
Veillonella = assay: Antibacterial activity against Veillonella HM-49 assessed as inhibition of bacterial growth by broth microdilution method; assay type: functional
Clostridioides difficile [10] = assay: Antibacterial activity against Clostridium difficile ATCC 43255 assessed as inhibition of bacterial growth by broth microdilution method; assay type: functional
Clostridioides difficile [11] = assay: Antibacterial activity against Clostridium difficile NR49305 assessed as inhibition of bacterial growth by broth microdilution method; assay type: functional
Clostridioides difficile [12] = assay: Antibacterial activity against Clostridium difficile 23828 assessed as inhibition of bacterial growth by broth microdilution method; assay type: functional
Escherichia coli = assay: Antibacterial activity against Escherichia coli ATCC25922 assessed as inhibition of bacterial growth by broth microdilution method; assay type: functional
Clostridioides difficile [13] = assay: Antibacterial activity against Clostridium difficile 24531 assessed as inhibition of bacterial growth by broth microdilution method; assay type: functional
Enterococcus faecium [14] = assay: Antibacterial activity against vancomycin susceptible Enterococcus faecium119-39A assessed as inhibition of bacterial growth by broth microdilution method; assay type: functional; details: 119-39A
Eubacterium sp. = assay: Antibacterial activity against Eubacterium sp. HM-178 assessed as inhibition of bacterial growth by broth microdilution method; assay type: functional
Streptococcus oralis = assay: Antibacterial activity against Streptococcus oralis ATCC 9811 assessed as inhibition of bacterial growth by broth microdilution method; assay type: functional
Clostridioides difficile [15] = assay: Antibacterial activity against Clostridium difficile NR49310 assessed as inhibition of bacterial growth by broth microdilution method; assay type: functional
[16] = test system: Staphylococcus haemolyticus; assay: Antibacterial activity against Staphylococcus haemolyticus ATCC 29970 assessed as inhibition of bacterial growth by broth microdilution method; assay type: functional
Acinetobacter baumannii = assay: Antibacterial activity against Acinetobacter baumannii ATCC17961 assessed as inhibition of bacterial growth by broth microdilution method; assay type: functional
Clostridioides difficile [17] = assay: Antibacterial activity against Clostridium difficile NR49302 assessed as inhibition of bacterial growth by broth microdilution method; assay type: functional
Pseudomonas aeruginosa = assay: Antibacterial activity against Pseudomonas aeruginosa ATCC27853 assessed as inhibition of bacterial growth by broth microdilution method; assay type: functional
Lactobacillus gasseri = assay: Antibacterial activity against Lactobacillus gasseri HM-644 assessed as inhibition of bacterial growth by broth microdilution method; assay type: functional
Corynebacterium sp. = assay: Antibacterial activity against Corynebacterium sp. HM-784 assessed as inhibition of bacterial growth by broth microdilution method; assay type: functional
Clostridioides difficile [18] = assay: Antibacterial activity against Clostridium difficile BAA-1870 assessed as inhibition of bacterial growth by broth microdilution method; assay type: functional

In the case of `CN[C@H](CC(C)C)C(=O)N[C@H]1C(=O)N[C@@H](CC(N)=O)C(=O)N[C@H]2C(=O)N[C@H]3C(=O)N[C@H](C(=O)N[C@H](C(=O)O)c4cc(O)cc(O)c4-c4cc3ccc4O)[C@H](O)c3ccc(c(Cl)c3)Oc3cc2cc(c3O[C@@H]2O[C@H](CO)[C@@H](O)[C@H](O)[C@H]2O[C@H]2C[C@](C)(N)[C@H](O)[C@H](C)O2)Oc2ccc(cc2Cl)[C@H]1O` [VANCOMYCIN], the MIC (Bifidobacterium longum) is reported as 0.25 µg/mL (≈ 0.173 µM), the MIC (Clostridioides difficile [1]) is reported as 0.25 µg/mL (≈ 0.173 µM) and the MIC (Clostridioides difficile [2]) is reported as 2 µg/mL (≈ 1.38 µM). The MIC (Staphylococcus aureus) was 64 µg/mL (≈ 44.2 µM), the Activity (Clostridioides difficile [3]) was “Active” and the MIC (Bacteroides fragilis) was 16 µg/mL (≈ 11 µM). It also gave an MIC (Fusobacterium nucleatum) of 0.25 µg/mL (≈ 0.173 µM), an MIC (Clostridioides difficile [4]) of 0.25 µg/mL (≈ 0.173 µM) and a Time (Clostridioides difficile [5]) of 3 h. It also gave an MIC (Clostridioides difficile [6]) of 0.25 µg/mL (≈ 0.173 µM).
With `CCc1c(Cl)c(O)c(Cl)c(O)c1C(=O)O[C@H]1[C@H](O)[C@H](OC)[C@H](OC/C2=C\C=C\C[C@H](O)/C(C)=C/[C@H](CC)[C@@H](O[C@@H]3OC(C)(C)[C@@H](OC(=O)C(C)C)[C@H](O)[C@@H]3O)/C(C)=C/C(C)=C/C[C@@H]([C@@H](C)O)OC2=O)O[C@@H]1C` [FIDAXOMICIN] the MIC (Bifidobacterium longum) was under 0.01 µg/mL, the MIC [7] was over 32 µg/mL and the MIC (Klebsiella pneumoniae) was over 128 µg/mL. The MIC (Klebsiella aerogenes) was over 128 µg/mL, the MIC (Clostridioides difficile [8]) was 4 µg/mL (≈ 3.78 µM) and the MIC (Clostridioides difficile [1]) was 0.5 µg/mL (≈ 0.473 µM). It also gave an MIC (Enterococcus faecium [9]) of over 16 µg/mL, an MIC (Veillonella) of 8 µg/mL (≈ 7.56 µM) and an MIC (Clostridioides difficile [10]) of 0.06 µg/mL (≈ 0.0567 µM). The MIC (Clostridioides difficile [11]) was 0.01 µg/mL (≈ 0.00945 µM), the MIC (Clostridioides difficile [12]) was over 8 µg/mL and the MIC (Clostridioides difficile [2]) was 1 µg/mL (≈ 0.945 µM). For the same molecule, the MIC (Escherichia coli) was over 128 µg/mL, the MIC (Clostridioides difficile [13]) was 0.01 µg/mL (≈ 0.00945 µM) and the MIC (Enterococcus faecium [14]) was over 16 µg/mL. For the same molecule, the MIC (Eubacterium sp.) was 16 µg/mL (≈ 15.1 µM), the MIC (Streptococcus oralis) was 32 µg/mL (≈ 30.2 µM) and the MIC (Clostridioides difficile [15]) was at most 0.01 µg/mL. It also gave an MIC [16] of 16 µg/mL (≈ 15.1 µM), an MIC (Acinetobacter baumannii) of over 128 µg/mL and an MIC (Clostridioides difficile [17]) of 0.03 µg/mL (≈ 0.0284 µM). For the same molecule, the MIC (Staphylococcus aureus) was 64 µg/mL (≈ 60.5 µM), the MIC (Bacteroides fragilis) was over 32 µg/mL and the MIC (Fusobacterium nucleatum) was under 0.06 µg/mL. It also gave an MIC (Pseudomonas aeruginosa) of over 128 µg/mL, an MIC (Lactobacillus gasseri) of 2 µg/mL (≈ 1.89 µM) and an MIC (Corynebacterium sp.) of under 0.06 µg/mL. The MIC (Clostridioides difficile [4]) was 0.01 µg/mL (≈ 0.00945 µM), the MIC (Clostridioides difficile [18]) was 0.25 µg/mL (≈ 0.236 µM) and the MIC (Clostridioides difficile [6]) was 0.125 µg/mL (≈ 0.118 µM).
